Columns and labels:
KB [1] = test: Cytotoxicity against human KB cells; type: cell-based
[2] = Cytotoxicity against human BC cells; type: cell-based
[3] = Cytotoxicity against human NCI-H187 cells; type: cell-based
[4] = molecular target: Tyrosinase (Agaricus bisporus); test: Inhibition of tyrosinase
[5] = Cytotoxicity against human NCI-H187 cells at 20 ug/ml; type: cell-based
KB [6] = test: Cytotoxicity against human KB cells at 20 ug/ml; type: cell-based
Tyrosinase [7] = molecular target: T1, Tyrosinase (Agaricus bisporus, UniProt O42713); test: Inhibition of mushroom tyrosinase at 1.2 uM
T1 sequence (O42713 whole entry): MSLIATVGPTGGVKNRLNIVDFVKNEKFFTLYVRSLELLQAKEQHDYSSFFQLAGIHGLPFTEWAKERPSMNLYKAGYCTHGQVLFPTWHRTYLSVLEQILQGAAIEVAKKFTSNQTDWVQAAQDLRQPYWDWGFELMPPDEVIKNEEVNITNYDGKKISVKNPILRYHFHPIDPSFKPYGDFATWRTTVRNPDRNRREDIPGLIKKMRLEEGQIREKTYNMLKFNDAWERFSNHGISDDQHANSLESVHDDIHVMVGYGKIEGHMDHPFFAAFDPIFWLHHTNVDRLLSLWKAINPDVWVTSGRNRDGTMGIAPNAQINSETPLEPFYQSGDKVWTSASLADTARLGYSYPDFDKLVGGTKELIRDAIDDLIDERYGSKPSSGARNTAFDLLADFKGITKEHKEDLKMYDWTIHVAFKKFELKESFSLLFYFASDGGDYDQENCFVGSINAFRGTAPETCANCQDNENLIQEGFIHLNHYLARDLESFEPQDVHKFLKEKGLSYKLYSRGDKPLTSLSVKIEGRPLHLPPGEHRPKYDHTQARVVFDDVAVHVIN

[8] = Cytotoxicity against human BC cells at 20 ug/ml; type: cell-based
Tyrosinase [9] = molecular target: T1, Tyrosinase; test: Inhibition of mushroom tyrosinase at 2.4 uM
Tyrosinase [10] = molecular target: T1, Tyrosinase; test: Inhibition of mushroom tyrosinase at 9.2 uM
Tyrosinase [11] = molecular target: T1, Tyrosinase; test: Inhibition of mushroom tyrosinase at 18.4 uM

Row | IC50 [4] [µM] | SMILES | IC50 (KB [1]) [µM] | IC50 [2] [µM] | IC50 [3] [µM] | Activity [5] [%] | Activity (KB [6]) [%] | Activity [8] [%] | further results
1 | > 100 | COc1cc(O)cc(/C=C/c2ccc(OC)cc2O)c1 | 16.5 | 13.9 | 33.5 |  |  |  | 
2 | > 100 | COc1cc(O)ccc1/C=C/c1cc(O)cc(O)c1 |  | 66.6 |  | < 50 | < 50 |  | 
3 | > 100 | COc1cc(O)cc(/C=C/c2ccc(O)cc2OC)c1 | 5.5 | 10.8 | 10.9 |  |  |  | 
4 |  | COc1cc(/C=C\c2ccc(OC)cc2OC)cc(OC)c1 | 0.3 | 1 | 0.3 |  |  |  | 
5 | > 100 | COc1cc(CCc2ccc(OC)cc2OC)cc(OC)c1 |  |  |  | < 50 | < 50 | < 50 | 
6 |  | COc1cc(/C=C/c2ccc(OC)cc2OC)cc(OC)c1 | 8.6 | 5.6 | 8 |  |  |  | 
7 |  | COc1cccc2c1C(=O)c1c(O)c3c(c(O)c1C2=O)C[C@@](O)(C(=O)CO)C[C@@H]3O[C@H]1C[C@H](N)[C@H](O)[C@H](C)O1 [DOXORUBICIN] |  | 0.5 | 0.1 |  |  |  | 
8 |  | Cc1c2ccncc2c(C)c2c1[nH]c1ccccc12 [ELLIPTECINE] | 2.4 | 2.7 | 1.9 |  |  |  | 
9 |  | Oc1cc(O)cc(/C=C/c2ccc(O)cc2O)c1 [OXYRESVERATROL] |  |  |  | < 50 | < 50 | < 50 | Ki (Tyrosinase [10]): 22 µM; Ki (Tyrosinase [11]): 28 µM

Row | SMILES | IC50 [4] [µM] | IC50 (KB [1]) [µM] | IC50 [2] [µM] | IC50 [3] [µM] | Activity [5] [%] | Activity (KB [6]) [%] | Activity [8] [%] | further results
10 | Oc1cc(O)cc(CCc2ccc(O)cc2O)c1 | 1.6 |  |  |  | < 50 | < 50 | < 50 | Ki (Tyrosinase [7]): 4.8 µM; Ki (Tyrosinase [9]): 5.6 µM

Source: ChEMBL document CHEMBL1139674 (Bioorg Med Chem Lett, 2006)
